# Test results as given in patent US9452119B2, “Nitrone compounds and their use in personal care” (Dow Global Technologies LLC, priority 2011, dated 2016).
# Tests used:
# [1] = Oxygen Radical Absorbance Capacity (ORAC) antioxidant potential; parameters: unit not given here; details: calculated from ORAC values (AUC minus blank); Trolox as internal control
# Description: Antioxidant potential is evaluated using the Oxygen Radical Absorbance Capacity (ORAC) protocol. ORAC is a chemical in-vitro method based on the hydrogen atom transfer (HAT) mechanism. ORAC measures antioxidant inhibition of peroxyl radical induced oxidations and thus reflects classical radical chain breaking antioxidant activity by H atom transfer. In this assay, the peroxyl radical reacts with a fluorescent probe to form a non-fluorescent product. This is quantitated using a fluorescence measurement. Antioxidant capacity is determined by decreased rate and amount of product formed over time. This assay depends upon the free radical damage to the fluorescent probe resulting in the change in its fluorescence intensity. The change of fluorescence intensity is an indicator of the degree of free radical damage. In the presence of an antioxidant, the inhibition of free radical damage is reflected in higher fluorescence intensity and can be measured as antioxidant capacity against the free radicals. The uniqueness of ORAC assay is that the reaction is driven to completion. This allows calculation of the area under the curve (AUC) and gives an absolute quantitation of antioxidancy as opposed to relative measurements in many other assays.
# As noted, the longer it takes to observe a decrease in fluorescence, the higher the antioxidant (AO) potential. From the AUC for a given antioxidant, the AUC for blank is subtracted to give its ORAC value. The concentration of AO needed to give the same AUC values as Trolox is calculated and used to represent the Trolox equivalent AO Capacity (TEAC). Trolox is ((±)-6-Hydroxy-2,5,7,8-tetramethylchromane-2-carboxylic acid, CAS #53188-07-1), and is used as an internal control.
# The ORAC test is conducted in the compounds of Examples 1-5 (inventive compounds) as well as to Vitamin C, Vitamin E, and the following comparative compounds:
# The TEAC values calculated from the ORAC values are listed the Table 2.
# collagen = experiment: UVA-induced collagen degradation, SDS-PAGE / densitometry of collagen γ-bands; assay type: biochemical; details: antioxidant at 238 μM, UVA irradiation, FIG. 3
# Description: FIG. 3 is a densitometry plot of collagen γ-bands on SDS-PAGE of samples containing antioxidant at concentration of 238 μM.
# In addition to the oxidative stress due to radical and ROS generation, oxidative damage to collagen can also be induced by UVA irradiation. Similar to the radical-induced collagen degradation, the effect of UVA in collagen degradation is mitigated by the presence of nitrones.
# Similar to the prevention of radical-induced degradation, better efficacy in the inhibitory effect of preventing UVA-induced degradation is also observed for VAN-IPHA (FIG. 3). In this analysis, the effects of VAN-IPHA and pHBz-IPHA are compared to a highly efficacious antioxidant, Resveratrol. […] The stability of nitrones of the invention provide an advantageous alternative solution for antioxidant needs in cosmetic applications, such as anti-aging.
# Type I collagen = experiment: AAPH radical induced collagen degradation, SDS-PAGE of remaining γ-chain; assay type: biochemical; details: incubated with AAPH at 50° C. for 90 mins; antioxidants at same concentration; FIG. 1
# Description: Type I collagen, typically found in abundance in skin, is dissolved in 0.04 M acetic acid, pH 4.3, prior to different treatments. For radical induced collagen degradation, aqueous radical initiator 2,2′-azobis-2-methyl-propanimidamide dihydrochloride (AAPH) is used. The collagen samples are incubated with AAPH in the presence of VAN-IPHA (Example 3), pHBz-IPHA (Example 6), and vitamin E (comparative) of the same concentration to determine the efficacy of these antioxidants in preventing collagen degradation. After incubation at 50° C. for 90 mins, the collagen samples are analyzed by SDS-PAGE to determine the degree of degradation by the remaining amount of γ-chain, which is a covalently cross-linked trimer for collagen.
Compound,TEAC (Trolox equivalent AO Capacity) [1],inhibitory effect of preventing UVA-induced collagen degradation (collagen),melting point [°C],extent of collagen degradation (remaining γ-chain) (Type I collagen)
"Cc1cc(C(C)(C)C)c(O)c(C(C)(C)C)c1 [BHT, reference compound]",0.11-0.21,,,
"Cc1cc(/C=[N+](\[O-])C(C)C)cc(C)c1O [DMHBz-IPHA, (Z)-N-(4-hydroxy-3,5-dimethylbenzylidene)propan-2-amine oxide]",1.56,,,
"CC(C)(C)/[N+]([O-])=C/c1ccccc1 [PBN, reference compound]",0.04,,,
"CC(C)/[N+]([O-])=C/c1ccccc1O [SAL-IPHA, (Z)-N-(2-hydroxybenzylidene)propan-2-amine oxide]",3.02,,,
"CCCC/C=[N+](\[O-])C(C)C [VAL-IPHA, reference compound]",0.18,,,
"COc1cc(/C=[N+](\[O-])C(C)C)ccc1O [VAN-IPHA, (Z)-N-(4-hydroxy-3-methoxybenzylidene)propan-2-amine oxide]",5.41,better efficacy than Resveratrol,178 to 180,significantly less
"COc1cc(/C=[N+](\[O-])C(C)(C)C)ccc1O [VAN-tBHA, (Z)-N-(4-hydroxy-3-methoxybenzylidene)-2-methylpropan-2-amine oxide]",4.42,,,
"O=C1O[C@H]([C@@H](O)CO)C(O)=C1O [Vitamin C, reference compound]",0.76,,,
"CC(C)/[N+]([O-])=C/c1ccc(O)cc1 [pHBz-IPHA, (Z)-N-(4-hydroxybenzylidene)propan-2-amine oxide]",8.67,,217 to 218,
Vitamin E [reference compound],0.13,,,
